Assay results reported in US11459375B2, “Cyclic peptides for the treatment of Graves' disease” (advanceCOR GmbH, priority 2017, dated 2022).
Peptide text beside a SMILES is read from it.

Assays:
Ad-TSHR-immunized mice [1] = test: serum thyroxin (T4) levels in Graves' disease mouse model; assay type: in vivo, BALB/c mice; details: 1 mg/kg IV 4-weekly, after start of therapy (week 11)
Procedure: In FIG. 5 the effects of peptide therapy on serum thyroxin levels were evaluated. The measurements were carried out in Ad-TSHR-immunized mice treated by either 4-weekly injections with vehicle (0.9% NaCl, “Graves' no therapy”, n=25 mice), or administrations of 1 mg/kg body weight of peptide of the invention 836 (12 mice), or of peptide 829 (13 mice), or TSHR-Fc (18 mice), or of control peptide 835 (13 mice). In addition, age-matched immunologically naïve unimmunized mice (“healthy”, 19 animals) were investigated. Data are represented as means±SEM. Significance over time was tested by analysis of variance (ANOVA) of groups at given time points, and controlled by ANOVA for repeated measurements within one group, followed by LSD post-hoc testing. *p<0.05, and **p<0.005, compared to the TSHR-immunized group treated with only NaCl (“Graves' no therapy”).
(§1) The study protocol used three 3-weekly immunizations (“initiation”) and followed by a “maintenance” phase with further regular 4-weekly boosts until the 9th immunisation, as described before (22). Mice were randomly assigned to therapeutic groups. Therapy (either 1 mg/kg body weight peptides or 0.9% NaCl vehicle control) was given 1 week after the 4th immunization by IV injection into a tail vein, and then continued at 4-weekly intervals, as described before for the treatment of anti-β1AR (16). The fusion protein TSHR-Fc was given IV at identical times at doses of 1 mg/kg, but had to be applied together with the histamine receptor blocker clemastin (Tavegil®) at a dose of 0.02 mg per mouse (25 g body weight) to avoid clinical symptoms of allergic reaction, which had been observed in initial pilot studies of TSHR-Fc administration in mice.
Total thyroxine (T4) was measured by immunoassay kit (#T4044T-100, Calbiotech Inc, Austin, Calif.) in duplicate determination.

Ad-TSHR-immunized mice [2] = test: thyroid size at end of experiment in Graves' disease mouse model; assay type: in vivo, BALB/c mice; details: 1 mg/kg IV 4-weekly
Procedure: Representative images are shown. In FIG. 4B, the effects of peptide therapy on thyroid sizes were investigated at the end of the experiment. The measurements were carried out in Ad-TSHR-immunized mice treated by either 4-weekly injections with vehicle (0.9% NaCl, “Graves' no therapy”, n=25 mice), or administrations of 1 mg/kg body weight of peptide of the invention 836 (12 mice), or of peptide 829 (13 mice), or of TSHR-Fc (18 mice), or of control peptide 835 (13 mice). In addition, age-matched immunologically naïve unimmunized mice (“healthy”, 19 animals) were investigated. The mean thyroid sizes in mm^3 are shown with SEM. Differences between groups were tested by AVOVA followed by post hoc LSD testing. ** indicates statistical significance (p<0.001) compared to the TSHR-immunized group treated with only NaCl (“Graves' no therapy”).
as §1
After euthanasia, dissection of the thyroid glands was performed under a stereomicroscope, as described before (22). Briefly, cross cuts at the level above the larynx and below the seventh cartilage ring were made and the glands with the tracheae and oesophagi were removed from the necks. Tissue blocks were kept in 4% neutral para-formaldehyde (PFA), washed in PBS 3 times and embedded in optimum cutting temperature (OCT) formulation (Tissue-Tek® O.C.T.™ compound, VWR Chemicals, Leuven, Belgium). Consecutive 5 μm-thick cross sections were cut at a fixed distance of 500 μm using a Leica microtome CM 1850 Cryostat (temperature at −19° C.) and mounted on Thermo Polysine slides (Thermo Scientific, Cat J2800AMNZ). […] Thyroid volumes (mm^3) were calculated from the sum of the areas of each section over the whole cutting region. Myocardial volumes (mm^3) were calculated in a similar way as described for thyroid glands from the sum of the areas of each section over whole cutting region (5 to 6 slides, depending on respective size of the hearts). […]

[3] = assay type: physicochemical
Excerpt: Peptide 836 is a 24-meric cyclic peptide corresponding to the eighth TSHR LRD loop, and peptide 829 (also 24-meric) to the first loop of the TSHR LRD.

Ad-TSHR-immunized mice [4] = test: ECG heart rates in Graves' disease mouse model; assay type: in vivo, BALB/c mice; details: 1 mg/kg IV 4-weekly, ECG under anaesthesia
Procedure: (§2) In FIG. 7 the effect of the peptide therapy on heart rates at various times during the experiment (A), and on heart weights (B) and cardiac ventricular volumes (C) at the end of the experiment were evaluated in all animals. The measurements were carried out in Ad-TSHR-immunized mice treated by either 4-weekly injections with vehicle (0.9% NaCl, “Graves' no therapy”, n=25 mice), or administrations of 1 mg/kg body weight of peptide of the invention 836 (12 mice), or of peptide 829 (13 mice), or TSHR-Fc (18 mice). In addition, age-matched immunologically naïve unimmunized mice (“healthy”, 19 animals) were investigated. Data are represented as mean±SEM. Significance over time was tested by analysis of variance (ANOVA) of groups at given time points, and controlled by ANOVA for repeated measurements within one group, followed by LSD post-hoc testing. *p<0.05, and **p<0.005, compared to the TSHR-immunized group treated with only NaCl (“Graves' no therapy”).
When mice were subjected to anaesthesia for immunisation, their heart function was monitored with an electrocardiogram (ECG amplifier module, Harvard Apparatus, Hugo Sachs electronics) and recorded with a special software, which allows to determine the heart rate from the ECG reading (Haemodyn, Hugo Sachs electronics). ECG was also performed in anaesthesia before animals were euthanized for histological exam at the end of the study.

Ad-TSHR-immunized mice [5] = test: heart weights upon necropsy; assay type: in vivo, BALB/c mice; details: 1 mg/kg IV 4-weekly, necropsy at end of experiment
Procedure: as §2
Due to unavailability of some fine histological sections, analysis of this parameter in mice treated with other peptides could unfortunately not be completed.

Compound	serum thyroxin (T4) levels (Ad-TSHR-immunized mice [1])	thyroid size (Ad-TSHR-immunized mice [2])	solubility in water [3]	heart rate (Ad-TSHR-immunized mice [4])	heart weights (Ad-TSHR-immunized mice [5])
CC[C@H](C)[C@@H]1NC(=O)[C@H](C(C)C)NC(=O)[C@H]([C@@H](C)O)NC(=O)[C@H](CC(C)C)NC(=O)[C@H](Cc2ccc(O)cc2)NC(=O)[C@H](CCCCN)NC(=O)[C@H](CC(N)=O)NC(=O)[C@H](CCCCN)NC(=O)[C@H](CC(N)=O)NC(=O)[C@H](CC(C)C)NC(=O)[C@H](Cc2ccc(O)cc2)NC(=O)[C@H](C(C)C)NC(=O)[C@H](C)NC(=O)[C@H](CC(=O)O)NC(=O)[C@H](CC(C)C)NC(=O)[C@H](CCCCN)NC(=O)[C@H]([C@@H](C)O)NC(=O)CNC(=O)[C@H](CC(N)=O)NC(=O)[C@H](Cc2ccccc2)NC(=O)[C@H](C)NC(=O)[C@H](Cc2ccc(O)cc2)NC(=O)CNC(=O)[C@H](CC(=O)O)NC1=O [peptide 836] (cyclo(GYAFNGTKLDAVYLNKNKYLTVID))	progressively decreasing T4 levels, which consecutively reverted to normal values	decreased thyroid sizes	easily soluble in water	no further increase, and significantly decreased resting heart rates at later time points	significantly reduced heart weights
TSHR-Fc: fusion protein: first 289 amino acids of human TSH receptor (A-subunit), GGR linker and Fc portion of human IgG2	progressively decreasing T4 levels, which consecutively reverted to normal values	decreased thyroid sizes	–	no further increase, and significantly decreased resting heart rates at later time points	trends towards reduced heart weights which did not reach statistical significance
SPPCECHQEEDFRVTCKDIQRIPS [peptide 829]	a trend which did not reach statistical significance	a trend which did not reach statistical significance	easily soluble in water	a trend which did not reach statistical significance	trends towards reduced heart weights which did not reach statistical significance
